Patent US20100093738A1, “Fungicidal Compounds and Fungicidal Compositions” (BASF SE, priority 2006, published 2010)

Tests used:
Botrytis cinerea = test: Activity against the gray mold pathogen Botrytis cinerea in the microtiter test; assay type: cell-based; conditions: 168 h, single active compound, day 7, read-out: Observed activity (%); for inhibition at 1 ppm: conc. 1 ppm, efficacy in % of untreated control
Pyricularia oryzae = test: microbe, parasite or virus in culture; assay type: cell-based; conditions: for inhibition at 0.25 ppm: Pyricularia oryzae, 168 h, read-out: Observed activity (%)

Structure (SMILES)	inhibition at 1 ppm (Botrytis cinerea)	inhibition at 0.25 ppm (Pyricularia oryzae)	other results
COC(=O)N(OC)c1ccccc1COc1ccn(-c2ccc(Cl)cc2)n1 [II.1, pyraclostrobin]	19%		
Cc1cc(C2CC2)nc(Nc2ccccc2)n1 [II.2, cyprodinil]		63%	inhibition at 0.063 ppm (Botrytis cinerea; conc. 0.063 ppm): 72%
O=C(Nc1ccccc1-c1ccc(Cl)cc1)c1cccnc1Cl [II.3, boscalid]	58%		
CC(C1CC1)C(O)(Cn1cncn1)c1ccc(Cl)cc1 (stereo not drawn) [II.4, cyproconazol]		0%	
Fc1ccc([C@]2(Cn3cncn3)O[C@H]2c2ccccc2Cl)cc1 [II.5, epoxiconazol]			Observed activity (%) (Pyricularia oryzae; single active compound, conc. 0.25 ppm, day 7): 4%
